Test results: patent US7998936B2, “Use of timosaponin Bll in the preparation of a medicament or product for the prevention and treatment of stroke” (Institute of Radiation Medicine, Academy of Military …, priority 2004, dated 2011)

Assays:
[1] = tested on: FeCl3-Induced Middle Cerebral Artery Thrombosis (MCAT) Rats; assay: Cerebral infarct size (TTC staining) in FeCl3-induced middle cerebral artery thrombosis rats; format: in vivo, rat; conditions: for cerebral infarct size percentage to affected side / cerebral infarct size percentage to total brain: x ± s; for effect on cerebral infarct size (in words): 20 mg/kg and 40 mg/kg, 7 days
Excerpt: (§1) Tamura and Liu's methods were used with modifications to prepare the model. Rats were anesthetized by intraperitoneal injection of 10% chloral hydrate (0.35 g/kg); and fixed with right arm reclining. An arc incision of about 1.5 cm in length was made at the midpoint between the link of paropia and external auditory canal and temporalis was removed to expose the temporal bone. […] The surrounding-tissues were protected with a piece of plastic film. A small piece of quantitative filter paper, which had absorbed 10 μL of a 50% ferric chloride solution, was applied on this segment of middle cerebral artery. The filter paper was removed after 30 min, and local tissues were rinsed with normal saline solution, followed by suture layer by layer. Then the experimental rats were put back to rearing cage. The temperature was controlled at 24° C. For the sham-operation group, the operation procedures were the same as the model group except for the application of the ferric chloride solution.
After behavior assessment, the animals were decapitated to remove the brains. The olfactory bulb, cerebellum and lower brain stem were removed, and the remaining part was cut into 5 coronal sections below 4° C. The sections were immediately placed into a TTC staining solution (containing 1.5 m 4% TTC, 0.1 ml 1M K2HPO4 and water (balance) per 5 ml staining solution), followed by incubation in dark at 37° C. for 30 min. Then, the sections were transferred into a solution of 10% formaldehyde and incubated in dark for 24 h. After staining, the non-ischemic areas were rose red, and the infracted areas were white. The white tissues were carefully collected and weighed. The extent of cerebral infarction was expressed as a percentage (%) of infracted tissue to the weight of total brain and also to the affected side of brain.

[2] = tested on: FeCl3-Induced Middle Cerebral Artery Thrombosis (MCAT) Rats; assay: Neurological symptom score in middle cerebral artery thrombosis rats; format: in vivo, rat; conditions: for effect on neurological symptoms (in words): 20 mg/kg and 40 mg/kg, 7 days; for neurological symptomatic score 6 h: 6 h after operation; for neurological symptomatic score 6 h / neurological symptomatic score 24 h: full score 4; for neurological symptomatic score 24 h: 24 h after operation
Excerpt: as §1
The experimental animals were tested for behaviors 6 h and 24 h after operation according to the Sederson's method with modifications. Criteria: (1) The tail of the rat was lifted to observe the flexibility of the forelimb, with both forelimbs symmetrically stretching forward scored as 0, and occurrence of any or all of shoulder inflexion, elbow inflexion, shoulder intorsion in the contralateral fore-limb opposite to the operation side scored as 1. (2) The animal was placed on a plane, and its shoulders were pushed to the opposite direction to check resistance, Equivalency and strong resistance in both sides was scored as 0, and reduction in resistance in the contralateral side was scored as 1. (3) Both forelimbs of the rat were placed on wire gauze to observe the muscular tension. […] According to the criteria above, the full score is 4, and the higher the score is, the more serious the behavior disorder of the animal is.

[3] = tested on: Middle Cerebral Artery Thrombosis (MCAT) Rats; assay: Water content in brain tissues in middle cerebral artery thrombosis rats; format: in vivo, rat; conditions: for Water content of affected hemisphere / Water content of unaffected hemisphere: 24 h after operation
[4] = tested on: acute blood stagnation model rats; assay: Whole blood and plasma viscosities in acute blood stagnation model rats; format: in vivo, rat; conditions: for effect on whole blood and plasma viscosities (in words): 10 mg/kg, 20 mg/kg and 40 mg/kg, high, middle and low shear rates
Excerpt: MAO Teng-min's methods were modified to prepare the model.

[5] = tested on: acute blood stagnation model rats; assay: Erythrocyte aggregation and deformability in acute blood stagnation model rats; format: in vivo, rat; conditions: for effect on erythrocyte aggregation index (in words) / effect on erythrocyte deformability (in words): vs. model group; for Erythrocyte aggregation SS / Erythrocyte deformability SSS: area under curve; for Erythrocyte aggregation MAXD: maximal erythrocyte aggregation index; for Erythrocyte deformability MAXDI: maximal erythrocyte deformation index
Protocol: MAO Teng-min's methods were modified to prepare the model. Rats were subcutaneously injected with 0.8 mg/kg adrenaline twice at 1 h and 5 h after administration on the fifth day, and were placed into ice-water at 4° C. for 5 min at 2 h after the first injection of adrenaline.
To 40 μl of heparinized blood, 1 ml of deforming solution was added and mixed thoroughly. A sample of 0.8 ml was tested in an erythrocyte aggregation/deformability tester, and erythrocyte deformability was expressed as maximal erythrocyte deformation index and area under curve (SSS). Another 0.8 ml of anticoagulated blood was tested in an erythrocyte aggregation/deformability tester, and erythrocyte aggregation was expressed as maximal erythrocyte aggregation index (MAXD) and area under curve ([…]).

[6] = Fenton reaction system; paramagnetic method; cited from earlier work
[7] = tested on: streptozocin-induced diabetic mouse; conditions: cited from earlier work
[8] = tested on: platelet aggregation; conditions: cited from earlier work
[9] = tested on: IL-1β; assay: ELISA of IL-1β in brain tissue of cerebral ischemia-reperfusion rats; conditions: brain homogenate
[10] = tested on: TNF-α; assay: ELISA of TNF-α in brain tissue of cerebral ischemia-reperfusion rats; conditions: brain homogenate
[11] = tested on: IL-10; assay: ELISA of IL-10 in brain tissue of cerebral ischemia-reperfusion rats; conditions: brain homogenate
[12] = tested on: TGF-β; assay: ELISA of TGF-β in brain tissue of cerebral ischemia-reperfusion rats; conditions: brain homogenate
[13] = tested on: cerebral ischemia-reperfusion model rats; assay: Inflammatory factors in brain tissues in cerebral ischemia-reperfusion rats (overall statement); conditions: 40 mg/kg
[14] = vs. model group P<0.05, P<0.01, listed as timosaponin BIT
[15] = 40 mg/kg, listed as timosaponin BII, 40 mg/kg

C[C@@H](CCC1(O)O[C@H]2C[C@H]3[C@@H]4CC[C@@H]5C[C@@H](O[C@@H]6O[C@H](CO)[C@H](O)[C@H](O)[C@H]6O[C@@H]6O[C@H](CO)[C@@H](O)[C@H](O)[C@H]6O)CC[C@]5(C)[C@H]4CC[C@]3(C)[C@H]2[C@@H]1C)CO[C@@H]1O[C@H](CO)[C@@H](O)[C@H](O)[C@H]1O (stereo partly drawn) [Timosaponin BII, (25S)-26-O-β-D-glucopyranosyl-22-hydroxy-5β-furostane-3β,26-diol-3-O-β-D-glucopyranosyl(1→2)-β-D-galactopyranoside]
cerebral infarct size percentage to affected side ([1]; 10 mg/kg by gavage 7 days): 6.35 ± 3.39%
cerebral infarct size percentage to total brain ([1]; 10 mg/kg by gavage 7 days): 3.27 ± 1.74%
effect on cerebral infarct size (in words) ([1]; vs. model group P<0.05, P<0.01): significantly reduced the cerebral infarct size
effect on cerebral infarct size (in words) [1, 14]: significantly reduce the cerebral infarct size
cerebral infarct size percentage to affected side ([1]; 20 mg/kg by gavage 7 days): 5.37 ± 2.20 %
cerebral infarct size percentage to total brain ([1]; 20 mg/kg by gavage 7 days): 2.92 ± 1.20 %
cerebral infarct size percentage to affected side ([1]; 40 mg/kg by gavage 7 days): 3.88 ± 2.38 %
cerebral infarct size percentage to total brain ([1]; 40 mg/kg by gavage 7 days): 1.99 ± 1.20 %
effect on neurological symptoms (in words) ([2]; vs. model group P<0.05, P<0.01): ameliorate neurological symptoms
effect on neurological symptoms (in words) [2, 14]: significantly lower the neurological symptom score
neurological symptomatic score 6 h ([2]; 10 mg/kg by gavage 7 days): 2.08 ± 0.67
neurological symptomatic score 6 h ([2]; 20 mg/kg by gavage 7 days): 1.82 ± 0.75
neurological symptomatic score 6 h ([2]; 40 mg/kg by gavage 7 days): 1.50 ± 0.71
neurological symptomatic score 24 h ([2]; 10 mg/kg by gavage 7 days): 2.08 ± 0.79
neurological symptomatic score 24 h ([2]; 20 mg/kg by gavage 7 days): 2.00 ± 0.45
neurological symptomatic score 24 h ([2]; 40 mg/kg by gavage 7 days): 1.90 ± 0.74
effect on water content of brain / cerebral edema (in words) ([3]; 40 mg/kg, vs. model group P<0.05, 40 mg/kg): significantly lowered the water content in the affected hemisphere
effect on water content of brain / cerebral edema (in words) ([3]; 40 mg/kg, vs. model group P<0.05, listed as timosaponin BIT, 40 mg/kg): significantly reduce the water content of brain
Water content of affected hemisphere ([3]; 10 mg/kg): 80.52 ± 0.69%
Water content of unaffected hemisphere ([3]; 10 mg/kg): 79.51 ± 0.57%
Water content of affected hemisphere ([3]; 20 mg/kg): 80.46 ± 0.79%
Water content of unaffected hemisphere ([3]; 20 mg/kg): 79.41 ± 0.38%
Water content of affected hemisphere ([3]; 40 mg/kg): 80.15 ± 0.99 %
Water content of unaffected hemisphere ([3]; 40 mg/kg): 79.47 ± 0.44%
Plasma viscosity (100 S^−1) ([4]; 10 mg/kg by gavage 5 days): 1.40 ± 0.10
Whole blood viscosity 1 S^−1 ([4]; 10 mg/kg by gavage 5 days): 27.03 ± 4.64
Whole blood viscosity 5 S^−1 ([4]; 10 mg/kg by gavage 5 days): 11.02 ± 1.38
Whole blood viscosity 30 S^−1 ([4]; 10 mg/kg by gavage 5 days): 6.10 ± 0.85
Whole blood viscosity 200 S^−1 ([4]; 10 mg/kg by gavage 5 days): 4.45 ± 0.71
effect on whole blood and plasma viscosities (in words) ([4]; P<0.05, P<0.01): significantly lowered whole blood and plasma viscosities
effect on whole blood and plasma viscosities (in words) ([4]; P<0.05, P<0.01, listed as timosaponin BII): significantly reduce the whole blood and plasma viscosities
Plasma viscosity (100 S^−1) ([4]; 20 mg/kg by gavage 5 days): 1.36 ± 0.10
Whole blood viscosity 1 S^−1 ([4]; 20 mg/kg by gavage 5 days): 33.13 ± 5.70
Whole blood viscosity 5 S^−1 ([4]; 20 mg/kg by gavage 5 days): 12.91 ± 1.82
Whole blood viscosity 30 S^−1 ([4]; 20 mg/kg by gavage 5 days): 6.55 ± 0.93
Whole blood viscosity 200 S^−1 ([4]; 20 mg/kg by gavage 5 days): 4.49 ± 0.70
Plasma viscosity (100 S^−1) ([4]; 40 mg/kg by gavage 5 days): 1.38 ± 0.12
Whole blood viscosity 1 S^−1 ([4]; 40 mg/kg by gavage 5 days): 31.21 ± 4.29
Whole blood viscosity 5 S^−1 ([4]; 40 mg/kg by gavage 5 days): 12.46 ± 1.33
Whole blood viscosity 30 S^−1 ([4]; 40 mg/kg by gavage 5 days): 6.45 ± 0.60
Whole blood viscosity 200 S^−1 ([4]; 40 mg/kg by gavage 5 days): 4.42 ± 0.38
effect on erythrocyte aggregation index (in words) ([5]; 40 mg/kg, 40 mg/kg): reduce the erythrocyte agglutination index
effect on erythrocyte deformability (in words) ([5]; 40 mg/kg, 40 mg/kg): significantly improve the deformation ability of erythrocytes
effect on erythrocyte aggregation index (in words) [5, 15]: decrease in erythrocyte aggregation index
effect on erythrocyte deformability (in words) [5, 15]: significant increase in erythrocyte deformability index
Erythrocyte aggregation SS ([5]; 10 mg/kg): 186.67 ± 28.85
Erythrocyte deformability SSS ([5]; 10 mg/kg): 363.88 ± 19.58
Erythrocyte aggregation SS ([5]; 20 mg/kg): 163.04 ± 50.23
Erythrocyte deformability SSS ([5]; 20 mg/kg): 363.97 ± 27.87
Erythrocyte aggregation SS ([5]; 40 mg/kg): 152.78 ± 28.11
Erythrocyte deformability SSS ([5]; 40 mg/kg): 374.26 ± 15.82
Erythrocyte aggregation MAXD ([5]; 10 mg/kg): 0.94 ± 0.14
Erythrocyte aggregation MAXD ([5]; 20 mg/kg): 0.81 ± 0.26
Erythrocyte aggregation MAXD ([5]; 40 mg/kg): 0.76 ± 0.14
Erythrocyte deformability MAXDI ([5]; 10 mg/kg): 0.72 ± 0.05
Erythrocyte deformability MAXDI ([5]; 20 mg/kg): 0.71 ± 0.05
Erythrocyte deformability MAXDI ([5]; 40 mg/kg): 0.73 ± 0.03
free radicals cleared [6]: 57%
blood sugar level (in words) [7]: can lower blood sugar level
clotting time (in words) [8]: prolonging clotting time
platelet aggregation (in words) [8]: obviously inhibiting platelet aggregation
IL-1β ([9]; 10 mg/kg by gavage 5 days): 9.70 ± 0.30 pg/mL
IL-1β ([9]; 40 mg/kg by gavage 5 days): 7.98 ± 0.80 pg/mL
TNFα ([10]; 10 mg/kg by gavage 5 days): 8.44 ± 0.62 pg/mL
TNFα ([10]; 40 mg/kg by gavage 5 days): 7.65 ± 0.61 pg/mL
IL-10 ([11]; 10 mg/kg by gavage 5 days): 14.49 ± 11.78 pg/mL
IL-10 ([11]; 40 mg/kg by gavage 5 days): 11.19 ± 5.16 pg/mL
TGF-β ([12]; 10 mg/kg by gavage 5 days): 12.70 ± 3.57 pg/mL
TGF-β ([12]; 40 mg/kg by gavage 5 days): 10.30 ± 3.79 pg/mL
effect on levels of inflammatory factors IL-1β, TNF-α, IL-10, TGF-β (in words) [13]: significantly reduced the levels of these inflammatory factors

Hydergine [reference compound]
cerebral infarct size percentage to affected side ([1]; 0.6 mg/kg by gavage 7 days): 3.75 ± 1.38 %
cerebral infarct size percentage to total brain ([1]; 0.6 mg/kg by gavage 7 days): 1.98 ± 0.72 %
neurological symptomatic score 6 h ([2]; 0.6 mg/kg by gavage 7 days): 1.91 ± 0.83
neurological symptomatic score 24 h ([2]; 0.6 mg/kg by gavage 7 days): 1.55 ± 0.69
